Earlier results on four molecules are cited in patent publication US20030036565A1, “Cancer chemopreventive agents” (WISCONSIN ALUMNI RESEARCH FOUNDATION, priority 2001, published 2003).

Molecules are shown by their SMILES.

This data set relates to phase II enzyme synthesis. The conditions noted are these: cultured murine hepatoma cells; Wilkinson and Clapper, 1997.

On to `COc1ccc(O)c(C(C)(C)C)c1` [BHA, butylated hydroxyanisole], for which the “induction of phase II enzyme synthesis” value is “induce phase II enzyme synthesis”. With `Cc1cc(C(C)(C)C)c(O)c(C(C)(C)C)c1` [BHT, butylated hydroxytoluene], the “induction of phase II enzyme synthesis” value is listed as “induce phase II enzyme synthesis”.

Regarding `CC(C)(C)c1cc(O)ccc1O` [TBHQ, tert-butylhydroquinone], the “induction of phase II enzyme synthesis” value is given as “induce phase II enzyme synthesis”.

In the case of `O=c1cc(-c2ccccc2)oc2ccc3ccccc3c12` [β-naphthoflavone], the “induction of phase II enzyme synthesis” value is listed as “induce phase II enzyme synthesis”.
